Reference: ChEMBL document CHEMBL1158446, “Antimitotic activity of lobaric acid and a new benzofuran, sakisacaulon A from Stereocaulon sasakii” (Bioorg Med Chem Lett, 2009)
pIC50: −log10 of the molar value. Calls of active or inactive are those of the source. No cut-off for these calls is given here.

Test: Inhibition of tubulin polymerization

Row | SMILES | inhibition | pIC50
1 | CCCCCc1c(C)c(O)cc(O)c1Oc1cc(OC)cc2c1C(=O)OC2CCCC (stereo not drawn) | inactive | –
2 | CCCCCc1c2c(cc(O)c1C(=O)O)OC(=O)c1c(cc(OC)cc1C(=O)CCCC)O2 [LOBARIC ACID] | – | 4.00
3 | CCCCCc1cc(O)cc(O)c1Oc1cc(OC)cc2c1C(=O)OC2(O)CCCC (stereo not drawn) | inactive | –
